Laboratory results: PubChem BioAssay (NCI)
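Interpolation was linear, between the two tested concentrations surrounding the appropriate level; five concentrations were tested over 48 hours in 96-well plates. GI50 = concentration required for 50% inhibition of growth. Definition used: TGI = concentration required for complete inhibition of growth.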

Key:
Assay in all cases: growth of human tumour cells (NCI), 48 h
A498 renal = test system: A498 renal
RXF 393 renal = test system: RXF 393 renal
UACC-62 melanoma = test system: UACC-62 melanoma
M14 melanoma = test system: M14 melanoma
ACHN renal = test system: ACHN renal
EKVX NSCLC = test system: EKVX NSCLC
SK-MEL-28 melanoma = test system: SK-MEL-28 melanoma
SK-MEL-5 melanoma = test system: SK-MEL-5 melanoma
MDA-MB-435 = test system: MDA-MB-435
NCI-H460 lung = test system: NCI-H460 lung

SMILES	GI50 (A498 renal)	TGI (A498 renal)	GI50 (RXF 393 renal)	TGI (RXF 393 renal)	GI50 (UACC-62 melanoma)	TGI (UACC-62 melanoma)	GI50 (M14 melanoma)	TGI (M14 melanoma)	GI50 (ACHN renal)	TGI (ACHN renal)	GI50 (EKVX NSCLC)	TGI (EKVX NSCLC)	GI50 (SK-MEL-28 melanoma)	TGI (SK-MEL-28 melanoma)	GI50 (SK-MEL-5 melanoma)	TGI (SK-MEL-5 melanoma)	GI50 (MDA-MB-435)	TGI (MDA-MB-435)	GI50 (NCI-H460 lung)	TGI (NCI-H460 lung)
COc1ccc(C2CC(c3cc(OC)c(OC)c(OC)c3)=NN2)cc1 (stereo not drawn)	5.99 µM	47.6 µM	9710 nM	92 µM	7630 nM	> 100 µM	13300 nM	> 100 µM	26.2 µM	> 100 µM	9.26 µM	> 100 µM	38700 nM	> 100 µM	4.29 µM	17.8 µM	2960 nM	20.9 µM	3470 nM	30.1 µM
COC(=O)c1oc2c(C(=O)/C=C/c3ccc(OC)cc3)c(OCCCN3CCCCC3)ccc2c1C	1.44 µM	4.54 µM	66 nM	0.487 µM	1540 nM	3 µM	1610 nM	3.59 µM	1.03 µM	2.54 µM	2.01 µM	7.18 µM	850 nM	2.33 µM	1.72 µM	3.17 µM	1670 nM	3.68 µM	1540 nM	3.18 µM
COc1ccc(Cc2ccccc2C(=O)O)c2ccccc12	–	57.9 µM	–	> 100 µM	–	29.9 µM	–	> 100 µM	–	> 100 µM	–	98.9 µM	–	64.2 µM	–	32.9 µM	–	54.8 µM	–	38.9 µM
COC(=O)c1ccc2c(c1)nc(-c1ccc(Cl)cc1)n2-c1cc(C(C)(C)C)[nH]n1	2.26 µM	9.76 µM	1570 nM	5.77 µM	2010 nM	7.78 µM	2900 nM	8.22 µM	3 µM	9.34 µM	3.06 µM	> 100 µM	3380 nM	15.5 µM	2.02 µM	5.1 µM	1190 nM	5 µM	2950 nM	8.81 µM
Fc1ccc(Nc2nc(Nc3ccc(-c4nc5ccccc5[nH]4)cc3)nc(N3CCCC3)n2)cc1	12.8 µM	25.7 µM	2170 nM	4.57 µM	1770 nM	3.61 µM	1890 nM	3.95 µM	3.08 µM	10.4 µM	2.27 µM	12.8 µM	1870 nM	3.66 µM	11.8 µM	24.4 µM	3380 nM	11.3 µM	2000 nM	4.2 µM
N#Cc1c2ccccc2c2nnc3cc(Cl)c(Cl)cc3n12	56.6 µM	> 100 µM	30000 nM	> 100 µM	62100 nM	> 100 µM	> 100000 nM	> 100 µM	19.9 µM	52.8 µM	48.6 µM	> 100 µM	–	–	84.2 µM	> 100 µM	> 100000 nM	> 100 µM	54200 nM	> 100 µM
